{"source": "patent US7135488B2", "about": "“Pyrrolyl-thiazole derivatives” (Hoffmann-La Roche Inc., priority 2003, dated 2006)"}
{"molecular_target": "T1, human cannabis CB1 receptor (Homo sapiens, UniProt P21554)", "T1 construct": "expressed in transfected cells; host or cells: human embryonic kidney (HEK) cells, Semliki Forest Virus system, membrane preparation", "T1 sequence (P21554 whole entry)": "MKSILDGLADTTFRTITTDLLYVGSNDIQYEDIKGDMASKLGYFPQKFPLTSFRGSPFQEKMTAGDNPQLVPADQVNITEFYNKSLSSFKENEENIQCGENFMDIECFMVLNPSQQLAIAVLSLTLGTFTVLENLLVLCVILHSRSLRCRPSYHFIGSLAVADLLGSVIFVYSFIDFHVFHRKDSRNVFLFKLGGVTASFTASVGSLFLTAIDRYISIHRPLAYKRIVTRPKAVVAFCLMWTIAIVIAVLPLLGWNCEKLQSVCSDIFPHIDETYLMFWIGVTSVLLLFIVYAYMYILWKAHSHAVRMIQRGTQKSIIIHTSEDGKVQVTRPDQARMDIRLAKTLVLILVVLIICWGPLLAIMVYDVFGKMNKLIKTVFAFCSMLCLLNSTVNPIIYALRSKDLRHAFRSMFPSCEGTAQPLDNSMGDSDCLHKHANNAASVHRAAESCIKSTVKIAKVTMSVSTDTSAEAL", "experiment": "CB1 receptor affinity, [3H]-CP-55,940 radioligand binding on HEK cell membranes", "settings": "not given", "experimental": "(§1) The affinity of the compounds of the invention for cannabinoid CB1 receptors was determined using membrane preparations of human embryonic kidney (HEK) cells in which the human cannabis CB1 receptor is transiently transfected using the Semliki Forest Virus system in conjunction with [3H]-CP-55,940 as radioligand. After incubation of a freshly prepared cell membrane preparation with the [3H]-ligand, with or without addition of compounds of the invention, separation of bound and free ligand was performed by filtration over glassfiber filters. Radioactivity on the filter was measured by liquid scintillation counting.", "units": {"IC50": "µM"}}
{"smiles": "COc1ccc(-c2nc(-c3cc(C(=O)Nc4ncccn4)c(C)n3CC3CCCCC3)cs2)cc1", "note": "[Example 324, Cyclohexylmethyl-5-[2-(4-methoxy-phenyl)-thiazol-4-yl]-2-methyl-1H-pyrrole-3-carboxylic acid pyrimidin-2-ylamide]", "IC50": "< 2"}
{"smiles": "COc1ccc(-c2nc(-c3cc(C(=O)NCc4ccccn4)c(C)n3CC3CCCCC3)cs2)cc1", "note": "[Example 305, Cyclohexylmethyl-5-[2-(4-methoxy-phenyl)-thiazol-4-yl]-2-methyl-1H-pyrrole-3-carboxylic acid (pyridin-2-ylmethyl)-amide]", "IC50": "< 2"}
{"smiles": "COc1ccc(-c2nc(-c3cc(C(=O)Nc4ccccc4)c(C)n3CC3CCCCC3)cs2)cc1", "note": "[Example 315, Cyclohexylmethyl-5-[2-(4-methoxy-phenyl)-thiazol-4-yl]-2-methyl-1H-pyrrole-3-carboxylic acid phenylamide]", "IC50": "< 2"}
{"smiles": "CCCCNC(=O)c1cc(-c2csc(-c3ccc4c(c3)OCO4)n2)n(CC2CCCCC2)c1C", "note": "[Example 340, 5-(2-Benzo[1,3]dioxol-5-yl-thiazol-4-yl)-1-cyclohexylmethyl-2-methyl-1H-pyrrole-3-carboxylic acid butylamide]", "IC50": "< 2"}
{"smiles": "COc1ccc(-c2nc(-c3cc(C(=O)N4CCCCC4)c(C)n3CC3CCCCC3)cs2)cc1", "note": "[Example 311, {1-Cyclohexylmethyl-5-[2-(4-methoxy-phenyl)-thiazol-4-yl]-2-methyl-1H-pyrrol-3-yl}-piperidin-1-yl-methanone]", "IC50": "< 2"}
{"smiles": "CCCCNC(=O)c1cc(-c2csc(C3CCCCC3)n2)n(CC2CCCCC2)c1C", "note": "[Example 375, Cyclohexylmethyl-5-(2-cyclohexyl-thiazol-4-yl)-2-methyl-1H-pyrrole-3-carboxylic acid butylamide]", "IC50": "< 2"}
{"smiles": "CCCCNC(=O)c1cc(-c2csc(-c3ccc(OC)cc3)n2)n(CC2CCCCC2)c1C", "note": "[Example 8, Cyclohexylmethyl-5-[2-(4-methoxy-phenyl)-thiazol-4-yl]-2-methyl-1H-pyrrole-3-carboxylic acid butylamide]", "IC50": "< 2"}
{"smiles": "COc1ccc(-c2nc(-c3cc(C(=O)NC4CCCCC4)c(C)n3CC3CCCCC3)cs2)cc1", "note": "[Example 356, Cyclohexylmethyl-5-[2-(4-methoxy-phenyl)-thiazol-4-yl]-2-methyl-1H-pyrrole-3-carboxylic acid cyclohexylamide]", "IC50": "< 2"}
{"smiles": "COc1ccc(-c2nc(-c3cc(C(=O)NN4CCCCC4)c(C)n3CC3CCCCC3)cs2)cc1", "note": "[Example 299, Cyclohexylmethyl-5-[2-(4-methoxy-phenyl)-thiazol-4-yl]-2-methyl-1H-pyrrole-3-carboxylic acid piperidin-1-ylamide]", "IC50": "< 2"}
{"smiles": "CCCCNC(=O)c1cc(-c2csc(-c3ccc(OC)cc3)n2)n(Cc2ccccc2)c1C", "note": "[Example 333, Benzyl-5-[2-(4-methoxy-phenyl)-thiazol-4-yl]-2-methyl-1H-pyrrole-3-carboxylic acid butylamide]", "IC50": "< 2"}
{"molecular_target": "T1, human cannabis CB1 receptor", "experiment": "CB1 receptor affinity, [3H]-CP-55,940 radioligand binding on HEK cell membranes", "settings": "membranes of HEK cells transiently transfected with human CB1 receptor; radioligand [3H]-CP-55,940; read-out: IC50 (affinity for the CB1 receptor)", "experimental": "as §1", "units": {"IC50": "µM"}}
{"smiles": "CCCCNC(=O)c1cc(-c2csc(-c3ccc(OC)cc3)n2)n(Cc2ccccn2)c1C", "note": "[Example 371, 5-[2-(4-Methoxy-phenyl)-thiazol-4-yl]-2-methyl-1-pyridin-2-ylmethyl-1H-pyrrole-3-carboxylic acid butylamide]", "IC50": "< 2"}
{"tested_on": "not given", "experiment": "not given", "settings": "not given", "units": {"melting point": "°C"}}
{"smiles": "CCCCNC(=O)c1cc(-c2csc(-c3ccc([N+](=O)[O-])cc3)n2)n(CC2CCCCC2)c1C", "note": "[Example 1, Cyclohexylmethyl-2-methyl-5-[2-(4-nitro-phenyl)-thiazol-4-yl]-1H-pyrrole-3-carboxylic acid butylamide]", "melting point": "184 to 187"}
{"tested_on": "not given", "experiment": "not given", "settings": "doses of 5, 10 and 20 mg daily; double blind placebo-controlled study; cited from earlier work"}
{"smiles": "Cc1c(C(=O)NN2CCCCC2)nn(-c2ccc(Cl)cc2Cl)c1-c1ccc(Cl)cc1", "note": "[SR 141716, Rimonabant]", "body weight compared to placebo": "significantly reduced body weight"}
